Source: ChEMBL document CHEMBL3992485 (Medchemcomm, 2016)
Calls of active or inactive are those of the source. The calls are words filed in the database; no cut-off is given here.

What was measured:
A549 = experiment: Antiproliferative activity against human A549 cells measured after 24 hrs by MTT assay; format: functional, cell-based; details: A549, 24 h
MCF7 = experiment: Antiproliferative activity against human MCF7 cells measured after 24 hrs by MTT assay; format: functional, cell-based; details: MCF7, 24 h
[1] = Antiproliferative activity against human 293T cells measured after 24 hrs by MTT assay; format: cell-based; details: 293T (HEK-293T) cells
HeLa [2] = experiment: Antiproliferative activity against human HeLa cells measured after 24 hrs by MTT assay; format: functional, cell-based
[3] = Inhibition of tubulin polymerization in bovine brain assessed as reduction in tubulin assembly after 20 mins by spectrophotometric method; design: species or system Bos taurus
HepG2 = experiment: Antiproliferative activity against human HepG2 cells measured after 24 hrs by MTT assay; format: functional, cell-based; details: HepG2, 24 h
HeLa [4] = experiment: Inhibition of microtubule polymerization in human HeLa cells at 0.2 uM after 24 hrs by DAPI staining based confocal microscopic analysis; format: cell-based

Row | Compound | IC50 (A549) [µM] | IC50 (MCF7) [µM] | CC50 at 24 h [1] [µM] | IC50 (HeLa [2]) [µM] | IC50 [3] [µM] | IC50 (HepG2) [µM] | inhibition (HeLa [4])
1 | CCCn1cc(C(=O)N2CCN(S(=O)(=O)c3ccc(Cl)cc3)CC2)c2ccccc21 | > 100 | > 100 | 537 | > 100 | 45.4 | 50.6 | –
2 | CC(C)c1cc(C(C)C)c(S(=O)(=O)N2CCN(C(=O)c3cn(Cc4ccccc4)c4ccccc34)CC2)c(C(C)C)c1 | 10.7 | 14.1 | 295 | 18.3 | 3.64 | 17.6 | –
3 | CCCn1cc(C(=O)N2CCN(S(=O)(=O)c3ccccc3)CC2)c2ccccc21 | 23.6 | 23.6 | 485 | > 100 | 48.9 | 29.7 | –
4 | CCn1cc(C(=O)N2CCN(S(=O)(=O)c3ccc([N+](=O)[O-])cc3)CC2)c2ccccc21 | 63.5 | 50.9 | 436 | 48 | 5.52 | 69.3 | –
5 | O=C(c1cn(Cc2ccccc2)c2ccccc12)N1CCN(S(=O)(=O)c2ccc(Cl)cc2)CC1 | 54.8 | 46.6 | 472 | > 100 | 6.01 | > 100 | –
6 | CC(=O)O[C@H]1C(=O)[C@@]2(C)[C@H]([C@H](OC(=O)c3ccccc3)[C@]3(O)C[C@H](OC(=O)[C@H](O)[C@@H](NC(=O)c4ccccc4)c4ccccc4)C(C)=C1C3(C)C)[C@]1(OC(C)=O)CO[C@@H]1C[C@@H]2O | – | – | – | – | – | – | inactive
7 | O=C(c1cn(Cc2ccccc2)c2ccccc12)N1CCN(S(=O)(=O)c2ccc([N+](=O)[O-])cc2)CC1 | > 100 | 50.6 | 347 | 42.9 | 6.84 | > 100 | –
8 | Cc1ccc(S(=O)(=O)N2CCN(C(=O)c3cn(C)c4ccccc34)CC2)cc1 | 7.43 | 6.53 | 353 | 3.65 | 2.15 | 1.83 | –
9 | Cn1cc(C(=O)N2CCN(S(=O)(=O)c3ccc(Cl)cc3)CC2)c2ccccc21 | 25.3 | 29.5 | 257 | 11.7 | 3.34 | 16.3 | –
10 | CC(C)c1cc(C(C)C)c(S(=O)(=O)N2CCN(C(=O)c3cn(C)c4ccccc34)CC2)c(C(C)C)c1 | 0.94 | 0.63 | 383 | 0.37 | 1.97 | 0.45 | –
11 | CCn1cc(C(=O)N2CCN(S(=O)(=O)c3ccc(Br)cc3)CC2)c2ccccc21 | 48.4 | 27.6 | 354 | 32.9 | 4.87 | 26.6 | –
12 | O=C(c1cn(Cc2ccccc2)c2ccccc12)N1CCN(S(=O)(=O)c2ccccc2)CC1 | 22.4 | 35.6 | 262 | 21.1 | 5.64 | 27.9 | –
13 | O=C(c1cn(Cc2ccccc2)c2ccccc12)N1CCN(S(=O)(=O)c2ccc(Br)cc2)CC1 | > 100 | 37.8 | 326 | 35.6 | 6.74 | 38.6 | –
14 | CCn1cc(C(=O)N2CCN(S(=O)(=O)c3ccccc3)CC2)c2ccccc21 | > 100 | 22.7 | 366 | 15.8 | 3.75 | 14.8 | –
15 | COc1cc2c(c(OC)c1OC)-c1ccc(OC)c(=O)cc1[C@@H](NC(C)=O)CC2 [COLCHICINE] | 0.47 | 0.54 | 152 | 0.45 | – | 0.64 | Active
16 | Cn1cc(C(=O)N2CCN(S(=O)(=O)c3ccccc3)CC2)c2ccccc21 | 15.5 | 9.43 | 314 | 7.76 | 2.76 | 4.54 | –
17 | CCCn1cc(C(=O)N2CCN(S(=O)(=O)c3ccc(Br)cc3)CC2)c2ccccc21 | 39.8 | 64.8 | 463 | 27.5 | 27.5 | 44.9 | –
18 | CCn1cc(C(=O)N2CCN(S(=O)(=O)c3ccc(C)cc3)CC2)c2ccccc21 | 24.7 | 24.6 | 298 | 12.8 | 3.75 | 7.45 | –
19 | CCCn1cc(C(=O)N2CCN(S(=O)(=O)c3ccc([N+](=O)[O-])cc3)CC2)c2ccccc21 | > 100 | > 100 | 464 | > 100 | 44.8 | > 100 | –
20 | CCCn1cc(C(=O)N2CCN(S(=O)(=O)c3ccc(C)cc3)CC2)c2ccccc21 | 14.7 | 16.8 | 357 | 10.7 | 3.15 | 24.9 | –
21 | Cc1ccc(S(=O)(=O)N2CCN(C(=O)c3cn(Cc4ccccc4)c4ccccc34)CC2)cc1 | 17 | 18.7 | 321 | 10 | 3.02 | 33.2 | –
22 | CCCn1cc(C(=O)N2CCN(S(=O)(=O)c3c(C(C)C)cc(C(C)C)cc3C(C)C)CC2)c2ccccc21 | 17.5 | 11.6 | 311 | 14.9 | 2.87 | 16.8 | –
23 | Cn1cc(C(=O)N2CCN(S(=O)(=O)c3ccc(Br)cc3)CC2)c2ccccc21 | 6.49 | 17.3 | 295 | 9.86 | 3.96 | 5.79 | –
24 | Cn1cc(C(=O)N2CCN(S(=O)(=O)c3ccc([N+](=O)[O-])cc3)CC2)c2ccccc21 | 44.6 | 32.6 | 374 | 15.6 | 3.56 | 28 | –
25 | CCn1cc(C(=O)N2CCN(S(=O)(=O)c3ccc(Cl)cc3)CC2)c2ccccc21 | > 100 | 46.6 | 275 | > 100 | 44.9 | 36.8 | –
